Assays:
[1] = system: pluripotency-related genes and XEN marker genes; assay: Real-time PCR of pluripotency, XEN and MET genes during chemical reprogramming; assay type: cell-based, mouse; details: stage 2, XEN-like cells
Procedure: Total RNA from an entire well of cultured cells was isolated using the RNeasy Plus MiniKit (QIAGEN). For a single colony, RNA was isolated using the RNeasy Micro Kit (QIAGEN). RNA was converted to cDNA using TransScript First-Strand cDNA Synthesis SuperMix (TransGen Biotech). PCR was carried out using Power SYBRR Green PCR Master Mix (Applied Biosystems) and performed on an ABI Prism 7300 Sequence Detection System. The data were analyzed using the delta-delta Ct method.

[2] = system: XEN-like cells; assay: Transition of XEN-like colonies to CiPSCs (stages 2 and 3); assay type: cell-based, mouse; details: screen of 88 small molecules in the presence of VC6TFA plus DZNep, stage 2 of 12 days
Procedure: MEFs, MNFs or MAFs were plated at 300,000 cells per 100 mm dish, or 50,000 cells per well on a 6-well plate. The next day (day 0), the culture was changed into stage 1 medium supplemented with small-molecule cocktail VC6TFAE (0.5 mM VPA, […] CHIR99021, 10 μM 616452, 5 μM Tranylcypromine, 50 µM FSK, 0.05 μM AM580 and 5 μM EPZ004777). […] The cells were harvested and then re-plated at 100,000 cells per well of a 6-well plate (1:15). During days 12-16, the cells were cultured in stage 1 medium supplemented with a modified small-molecule cocktail VC6TFA (0.5 mM VPA, 10 μM CHIR99021, 10 μM 616452, 5 μM Tranylcypromine, 10 μM FSK, 0.05 μM AM580). On day 16, XEN-like epithelial colonies were formed and the culture was changed into stage 2 medium supplemented with small-molecule cocktail VC6TFAZDS (0.5 mM VPA, 10 μM CHIR99021, 10 μM 616452, 5 μM Tranylcypromine, 10 μM FSK, 0.05 μM AM580, 0.05 μM DZNep, 0.5 μM 5-aza-dC and 5 μM SGC0946). On day 28, the culture was transferred into stage 3 medium. […] During CiPSC induction, the medium and small molecules were changed every 4 days.
Studies were next conducted to identify small molecules that facilitate the transition of XEN-like colonies to CiPSCs during stages 2 and 3. Small-molecule screenings were performed in the presence of small molecule cocktail VC6TFA plus DZNep (Z) for 12 days with successful enhanced generation of CiPSC colonies. […]

Nc1ncn([C@H]2C[C@H](O)[C@@H](CO)O2)c(=O)n1 [5-aza-dC]
expression of pluripotency genes (Oct4, Dppa family genes) [1]: promote the expression of pluripotency genes | CiPSC colony formation in stage 3 [2]: CiPSC colonies formed in stage 3 only when the cell culture medium was supplemented with 5-aza-dC

From patent US12180509B2, “Methods for reprograming non-pluripotent cells into pluripotent stem cells” (Beihao Stem Cell and Regenerative Medicine Research …, priority 2015, dated 2024)
